Experimental data from US5869500A, “Pyridone compounds useful in treating Alzheimer's disease” (Hoffmann-La Roche Inc., priority 1996, dated 1999).
pIC50: −log10 of the molar value.

Tests used:
[1] = system: Aβ production in HEK cells over-expressing Wild type β-APP; assay: Aβ production inhibition, sandwich-ELISA in HEK cells which over-express Wild type β-APP (SE-WT); type: cell-based, human; conditions: for Emax: HEK293, maximum inhibition plateau, read-out: SE-WT max. inhibition %
Experimental: The effect of test substances on the inhibition of Aβ-amyloid production can be measured in the supernatant of cell cultures of β-APP expressed cells using ELISA tests or other quantitative determination methods for β-APP degradation products. Typically, 8×10^5 cells (e.g. HEK cells, which express recombinant human β-APP variants) are plated out in each well of a culture dish having 24 wells in growth media such as e.g. OPTIMEM (Gibco) and the test compound is then added. After an incubation period of 24 to 48 hours at 37° C. in a 10% CO2 atmosphere the supernatant is removed from the cell cultures and the β-APP degradation products (e.g. Aβ or β-[…]) are determined with the aid of ELISA (or sandwich ELISA) analysis or by means of quantitative immunoprecipitation (after metabolic radiolabelling of the cell proteins). Typically, 300 μl of the cell supernatant are tested according to the state of the art for ELISA tests in culture dishes having 96 wells. In the case of sandwich ELISA for Aβ, the binding antibody can be directed against the first 16 amino acids of Aβ-peptide (e.g. 6E10 Senetek, Maryland Heights, Mo.) and the detection antibody can be directed against amino acids 17-40 or 17-42 of Aβ and carries a detection system such as e.g. peroxidase. A simple ELISA test with an antibody, e.g. 22C11 (Boehringer Mannheim), can be used as the test for […]; the second antibody can be an anti-(mouse) Ig having a detection system, such as e.g. peroxidase. The peroxidase reaction can be carried out e.g. using a TMB substrate (BioRAD) and the measurements can be carried out at 650 nm using an ELISA reading apparatus. […] SE-SFAD signifies the Aβ production inhibition measured using sandwich-ELISA in HEK cells, SFAD signifies over-expressed mutated β-APP, and SE-WT signifies the Aβ production inhibition measured using sandwich-ELISA in HEK cells which over-express Wild type β-APP. The IC50 values are based on the respective plateau of maximum inhibition.

[2] = system: Aβ production in HEK cells over-expressing mutated β-APP (SFAD); assay: Aβ production inhibition, sandwich-ELISA in HEK cells, over-expressed mutated β-APP (SE-SFAD); type: cell-based, human; conditions: for pIC50: based on the respective plateau of maximum inhibition; for Emax / SE-SFAD max. inhibition %: maximum inhibition plateau; for Emax: read-out: SE-SFAD max. inhibition %
Outline: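 HEK cells expressing recombinant human wild-type or mutated (SFAD) β-APP treated with compound for 24 to 48 hours at 37° C, 10% CO2. IC50 based on plateau of maximum inhibition.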

[3] = Homo sapiens, HEK293, based on the respective plateau of maximum inhibition
[4] = Homo sapiens, HEK293, HEK cells

| Compound | pIC50 [1, 3] | Emax ([1]; Homo sapiens) | pIC50 [2, 4] | Emax [2, 4] | pIC50 ([2]; HEK cells) | SE-SFAD max. inhibition % ([2]; HEK cells) | pIC50 ([1]; based on the respective plateau of maximum inhibition) | SE-WT max. inhibition % ([1]; maximum inhibition plateau) |
| --- | --- | --- | --- | --- | --- | --- | --- | --- |
| COC1CN(C(=O)c2cc(-c3ccccc3)c(=O)n3ccc4ccc(Cl)cc4c23)C1 [Compound 40, 10-Chloro-1-(3-methoxy-azetidine-1-carbonyl)-3-phenyl-pyrido-[2,1-a]isoquinolin-4-one] | 5.15 | 70% | 5.17 | 100% | – | – | – | – |
| COCC1CC(OC)CN1C(=O)c1cc(-c2ccccc2)c(=O)n2ccc3ccsc3c12 (stereo not shown) [Compound 8, 10-(4-Methoxy-2-methoxymethyl-pyrrolidine-1-carbonyl)-8-phenylthieno[2,3-a]quinolizin-7-one] | 4.92 | 25% | 6.00 | 35% | – | – | – | – |
| COC1CCCN(C(=O)c2cc(-c3ccccc3)c(=O)n3ccc4ccsc4c23)C1 (stereo not shown) [Compound 14, 10-(3-Methoxy-piperidine-1-carbonyl)-8-phenyl-thieno[2,3-a]-quinolizine-7-on] | 5.10 | 70% | 5.64 | 50% | – | – | – | – |
| O=C1CC[C@H](COC(=O)c2cc(-c3ccccc3)c(=O)n3ccc4ccsc4c23)N1 [Compound 3, 5-Oxo-pyrrolidin-2-(R)-yl-methyl 7-oxo-8-phenyl-7H-thieno[2,3-a]-quinolizine-10-carboxylate] | 6.00 | 60% | 5.02 | 30% | – | – | – | – |
| CCCOC1CN(C(=O)c2cc(-c3ccccc3)c(=O)n3ccc4ccsc4c23)C1 [Compound 1, 8-Phenyl-10-(3-propoxy-azetidin-1-carbonyl)-thieno[2,3-a]quinolizin-7-one] | 5.40 | 75% | 5.70 | 65% | – | – | – | – |
| COC(=O)c1cc(-c2ccccc2OC)c(=O)n2ccc3ccsc3c12 [Compound 129, Methyl 8-(2-methoxy-phenyl)-7-oxo-7H-thieno[2,3-a]quinolizine-10-carboxylate] | 5.82 | 85% | – | – | 5.55 | 75% | – | – |
| COCCN(CCOC)C(=O)c1cc(-c2ccc(C(C)(C)C)cc2)c(=O)n2ccc3ccsc3c12 [Compound 109, 8-(4-tert-Butyl-phenyl)-7-oxo-7H-thieno[2,3-a]quinolizine-10-carboxylicacid bis-(2-methoxy-ethyl)-amide] | 6.10 | 100% | 5.11 | 100% | – | – | – | – |
| COCCN(C(=O)c1cc(-c2ccc(OCc3ccccc3)cc2)c(=O)n2ccc3cc(I)sc3c12)c1ccccc1 [Compound 81, 8-(4-Benzyloxy-phenyl)-2-iodo-7-oxo-7H-thieno[2,3-a]quinolizine-10-carboxylic acid (2-methoxy-ethyl)-phenyl-amide] | 5.92 | 100% | > 6.00 | 50% | – | – | – | – |
| CCOC(=O)CN1CCN(C(=O)c2cc(-c3ccccc3)c(=O)n3ccc4ccsc4c23)CC1 [Compound 16, Ethyl [4-(7-oxo-8-phenyl-7H-thieno[2,3-a]quinolizine-10-carbonyl)-piperazin-1-yl]-acetate methanesulphonate] | 5.22 | 70% | 5.52 | 30% | – | – | – | – |
| 8-(2-Benzoylamino-phenyl)-7-oxo-8-p-tolyl-7H-thieno[2,3-a]-quinolizine-10- carboxylic acid (2-methoxy-ethyl)-phenyl-amide [Compound 152] | – | – | – | – | 5.85 | 100% | 5.82 | 50-90% |
| COC(=O)c1cc(-c2ccccc2)c(=O)n2ccc3ccc(Cl)cc3c12 [Compound 36, Methyl 10-chloro-4-oxo-3-phenyl-4H-pyrido [2,1-a]isoquinoline-1-carboxylate] | 6.00 | 60% | 5.55 | 40% | – | – | – | – |
| O=C(c1cc(-c2ccccc2)c(=O)n2ccc3ccsc3c12)n1ccnc1 [Compound 52, 10-(Imidazole-1-carbonyl)-8-phenyl-thieno[2,3-a]quinolizin-7-one] | 4.92 | 45% | 5.30 | 25% | – | – | – | – |
| COCCN(C(=O)c1cc(-c2ccccc2)c(=O)n2ccc3ccsc3c12)c1ccccc1 [Compound 23, 7-Oxo-8-phenyl-7H-thieno[2,3-a]quinolizine-10-carboxylic acid (2-methoxy-ethyl)phenyl-amide] | 5.47 | 100% | 5.17 | 100% | – | – | – | – |
| CN1CCC[C@H]1COC(=O)c1cc(-c2ccccc2)c(=O)n2ccc3ccsc3c12 [Compound 28, 1-Methyl-pyrrolidin-2-(S)-yl-methyl 7-oxo-8-phenyl-7H-thieno[2,3-a]-quinolizine-10-carboxylate] | 5.70 | 100% | 5.05 | 100% | – | – | – | – |
| COC(=O)c1cc(-c2ccccc2)c(=O)n2c1-c1[nH]c3ccccc3c1CC2 [Compound 63, Methyl 4-oxo-3-phenyl-4,6,7,12-tetrahydro-indolo[2,3-a]quinolizine-1-carboxylate] | 6.22 | 45% | 6.00 | 65% | – | – | – | – |
| CN(CC1CCCO1)C(=O)c1cc(-c2ccccc2)c(=O)n2ccc3ccsc3c12 (stereo not shown) [Compound 24, 7-Oxo-8-phenyl-7H-thieno[2,3-a]quinolizine-10-carboxylic acid methyl-(tetrahydrofuran-2-yl-methyl)-amide] | 5.00 | 60% | 5.15 | 40% | – | – | – | – |
| COC[C@@H]1CCCN1C(=O)c1cc(-c2ccccc2)c(=O)n2ccc3ccsc3c12 [Compound 34, 10-(2-(S)-Methoxymethyl-pyrrolidine-1-carbonyl)-8-phenyl-thieno-[2,3-a]-quinolizin-7-one] | 5.40 | 60% | 5.05 | 50% | – | – | – | – |
| COCCN(C(=O)c1cc(-c2ccc(OCc3ccccc3)cc2)c(=O)n2ccc3cc(Br)sc3c12)c1ccccc1 [Compound 77, 8-(4-Benzyloxy-phenyl)-2-bromo-7-oxo-7H-thieno[2,3-a]quinolizine-10-carboxylic acid (2-methoxy-ethyl)-phenyl-amide] | 6.70 | 100% | 6.70 | 80% | – | – | – | – |
| O=C(OCc1cccs1)c1cc(-c2ccccc2)c(=O)n2ccc3ccsc3c12 [Compound 55, Thiophen-2-yl-methyl 7-oxo-8-phenyl-7H-thieno[2,3-a]quinolizine-10-carboxylate] | 5.30 | 60% | 5.40 | 50% | – | – | – | – |
| CC(C)N(CC#CCOC(=O)c1cc(-c2ccccc2)c(=O)n2ccc3ccsc3c12)C(C)C [Compound 48, 4-Diisopropylamino-but-2-ynyl 7-oxo-8-phenyl-7H-thieno[2,3-a]-quinolizine-10-carboxylate methanesulphonate] | 5.48 | 100% | 4.92 | 100% | – | – | – | – |
| CN(C)C(=O)COC(=O)c1cc(-c2ccccc2)c(=O)n2ccc3ccsc3c12 [Compound 30, Dimethyl-carbamoylmethyl 7-oxo-8-phenyl-7H-thieno[2,3-a]-quinolizine-10-carboxylate] | 5.30 | 60% | 5.30 | 25% | – | – | – | – |
| COCCCN(C)C(=O)c1cc(-c2ccccc2)c(=O)n2ccc3ccsc3c12 [Compound 18, 7-Oxo-8-phenyl-7H-thieno[2,3-a]quinolizine-10-carboxylic acid (3-methoxy-propyl)-methyl-amide] | 5.15 | 40% | 5.40 | 30% | – | – | – | – |
